Literature values, collected in patent publication US20110275602A1, “PHARMACEUTICAL ASSOCIATION, COMPOSITIONS FOR TOPICAL USE, FORMS OF DOSAGE AND METHOD OF TREATMENT OF ACUTE OR CHRONIC OTITIS IN PET ANIMALS” (priority 2007, published 2011).

Test system: acute external otitis
Details: humans; literature

O=C(O)c1cn(C2CC2)c2cc(N3CCNCC3)c(F)cc2c1=O [ciprofloxacin]
efficacy for the treatment of acute external otitis: 77%
